# Values joined by “and” are separate entries in the source; they are usually repeats but may differ in a detail not shown here. Equal values may be shown once. Inconclusive results and toxic doses are left out.
# Test system: BDF1 mice, P388 leukemia ip, median survival T/C
# Test: NCI In Vivo Anticancer Drug Screen. Data for tumor model P388 Leukemia (intraperitoneal) in B6D2F1 (BDF1) mice
# Details: endpoint: median survival time, higher = longer survival
# Outline: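 Survival ratio, drug arm over vehicle arm, in mice with a transplanted tumour.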
# [1] = dose: 100.0 mg/kg/injection, schedule: Q04DX003 (ip), vehicle: saline with Tween-80
# [2] = dose: 200.0 mg/kg/injection, schedule: Q04DX003 (ip), vehicle: saline with Tween-80
smiles,measurement,setting,value
CO[C@H]1/C=C/O[C@@]2(C)Oc3c(C)c(O)c4c(O)c(c(/C=N/N5C(C)CN(Cc6ccccc6)CC5C)c(O)c4c3C2=O)NC(=O)/C(C)=C\C=C\[C@H](C)[C@H](O)[C@@H](C)[C@@H](O)[C@@H](C)[C@H](OC(C)=O)[C@@H]1C (stereo not given in full),T/C,"dose: 12.5 mg/kg/injection, schedule: Q01DX005 (ip), vehicle: Klucel (hydroxypropylcellulose) (HPC)",94 % of control
same,T/C,"dose: 12.5 mg/kg/injection, schedule: Q01DX005 (ip), vehicle: other",97 % of control
same,T/C,"dose: 12.5 mg/kg/injection, schedule: Q01DX005 (oral), vehicle: other",103 % of control
same,T/C,"dose: 12.5 mg/kg/injection, schedule: Q02DX Z (oral), vehicle: Klucel (hydroxypropylcellulose) (HPC)",89 % of control
same,T/C,"dose: 25.0 mg/kg/injection, schedule: Q01DX005 (ip), vehicle: Klucel (hydroxypropylcellulose) (HPC)",97 % of control
same,T/C,"dose: 25.0 mg/kg/injection, schedule: Q01DX005 (ip), vehicle: other",106 % of control
same,T/C,"dose: 25.0 mg/kg/injection, schedule: Q01DX005 (oral), vehicle: Klucel (hydroxypropylcellulose) (HPC)",104 % of control
same,T/C,"dose: 25.0 mg/kg/injection, schedule: Q01DX005 (oral), vehicle: other",103 % of control
same,T/C,"dose: 25.0 mg/kg/injection, schedule: Q02DX Z (ip), vehicle: Klucel (hydroxypropylcellulose) (HPC)",105 % of control
same,T/C,"dose: 50.0 mg/kg/injection, schedule: Q01DX005 (ip), vehicle: Klucel (hydroxypropylcellulose) (HPC)",94 % of control
same,T/C,"dose: 50.0 mg/kg/injection, schedule: Q01DX005 (ip), vehicle: other",103 % of control
same,T/C,"dose: 50.0 mg/kg/injection, schedule: Q01DX005 (oral), vehicle: Klucel (hydroxypropylcellulose) (HPC)",104 % of control
same,T/C,"dose: 50.0 mg/kg/injection, schedule: Q01DX005 (oral), vehicle: other",104 % of control
same,T/C,"dose: 50.0 mg/kg/injection, schedule: Q01DX009 (ip), vehicle: Klucel (hydroxypropylcellulose) (HPC)",90 % of control
same,T/C,"dose: 50.0 mg/kg/injection, schedule: Q02DX Z (ip), vehicle: Klucel (hydroxypropylcellulose) (HPC)",105 % of control
same,T/C,"dose: 50.0 mg/kg/injection, schedule: Q02DX Z (oral), vehicle: Klucel (hydroxypropylcellulose) (HPC)",99 % of control
same,T/C,"dose: 100.0 mg/kg/injection, schedule: Q01DX005 (ip), vehicle: Klucel (hydroxypropylcellulose) (HPC)",100 % of control
same,T/C,"dose: 100.0 mg/kg/injection, schedule: Q01DX005 (ip), vehicle: other",106 % of control
same,T/C,"dose: 100.0 mg/kg/injection, schedule: Q01DX005 (oral), vehicle: Klucel (hydroxypropylcellulose) (HPC)",105 % of control
same,T/C,"dose: 100.0 mg/kg/injection, schedule: Q01DX005 (oral), vehicle: other",114 % of control
same,T/C,"dose: 100.0 mg/kg/injection, schedule: Q01DX009 (ip), vehicle: Klucel (hydroxypropylcellulose) (HPC)",100 % of control
same,T/C,"dose: 100.0 mg/kg/injection, schedule: Q02DX Z (ip), vehicle: Klucel (hydroxypropylcellulose) (HPC)",110 % of control
same,T/C,"dose: 100.0 mg/kg/injection, schedule: Q02DX Z (oral), vehicle: Klucel (hydroxypropylcellulose) (HPC)",100 % of control
same,T/C,"dose: 200.0 mg/kg/injection, schedule: Q01DX005 (ip), vehicle: Klucel (hydroxypropylcellulose) (HPC)",86 % of control
same,T/C,"dose: 200.0 mg/kg/injection, schedule: Q01DX005 (ip), vehicle: other",112 % of control
same,T/C,"dose: 200.0 mg/kg/injection, schedule: Q01DX005 (oral), vehicle: Klucel (hydroxypropylcellulose) (HPC)",105 % of control
same,T/C,"dose: 200.0 mg/kg/injection, schedule: Q01DX009 (ip), vehicle: Klucel (hydroxypropylcellulose) (HPC)",100 % of control
same,T/C,"dose: 200.0 mg/kg/injection, schedule: Q02DX Z (ip), vehicle: Klucel (hydroxypropylcellulose) (HPC)",110 % of control
same,T/C,"dose: 200.0 mg/kg/injection, schedule: Q02DX Z (oral), vehicle: Klucel (hydroxypropylcellulose) (HPC)",89 % of control
same,T/C,"dose: 400.0 mg/kg/injection, schedule: Q01DX005 (ip), vehicle: Klucel (hydroxypropylcellulose) (HPC)",97 % of control
same,T/C,"dose: 400.0 mg/kg/injection, schedule: Q01DX005 (oral), vehicle: Klucel (hydroxypropylcellulose) (HPC)",106 % of control
same,T/C,"dose: 400.0 mg/kg/injection, schedule: Q02DX Z (ip), vehicle: Klucel (hydroxypropylcellulose) (HPC)",116 % of control
same,T/C,"dose: 400.0 mg/kg/injection, schedule: Q02DX Z (oral), vehicle: Klucel (hydroxypropylcellulose) (HPC)",91 % of control
same,T/C,"dose: 800.0 mg/kg/injection, schedule: Q01DX005 (oral), vehicle: Klucel (hydroxypropylcellulose) (HPC)",104 % of control
same,T/C,"dose: 800.0 mg/kg/injection, schedule: Q02DX Z (ip), vehicle: Klucel (hydroxypropylcellulose) (HPC)",110 % of control
same,T/C,"dose: 1600.0 mg/kg/injection, schedule: Q01DX005 (oral), vehicle: Klucel (hydroxypropylcellulose) (HPC)",110 % of control
same,T/C,"dose: 1600.0 mg/kg/injection, schedule: Q02DX Z (ip), vehicle: Klucel (hydroxypropylcellulose) (HPC)",109 % of control
c1ccc2c(c1)Sc1ccccc1N2Cc1cnc[nH]1,T/C,"dose: 25.0 mg/kg/injection, schedule: Q04DX003 (ip), vehicle: saline with Tween-80",100 % of control
same,T/C,"dose: 50.0 mg/kg/injection, schedule: Q04DX003 (ip), vehicle: saline with Tween-80",104 % of control
same,T/C,[1],100 % of control
same,T/C,[2],109 % of control
O=C1NC2NC(=O)NC2N1 (stereo not given),T/C,[1],100 % of control
same,T/C,[2],100 % of control
same,T/C,"dose: 400.0 mg/kg/injection, schedule: Q04DX003 (ip), vehicle: saline with Tween-80",104 % of control
CC(C)(C)P(O)(=S)c1ccccc1 (stereo not given) (tested in a mixture with another compound),T/C,"dose: 50.0 mg/kg/injection, schedule: Q01DX005 (ip), vehicle: saline",94 % of control
same,T/C,"dose: 100.0 mg/kg/injection, schedule: Q01DX005 (ip), vehicle: saline",93 % of control
same,T/C,"dose: 200.0 mg/kg/injection, schedule: Q01DX005 (ip), vehicle: saline",100 % of control
CC(=O)Nc1ccc(NC(=O)NCCCl)cc1,T/C,"dose: 50.0 mg/kg/injection, schedule: Q04DX003 (ip), vehicle: Klucel (hydroxypropylcellulose) (HPC)",110 % of control
same,T/C,"dose: 59.0 mg/kg/injection, schedule: Q01DX009 (ip), vehicle: Klucel (hydroxypropylcellulose) (HPC)",100 % of control
same,T/C,"dose: 88.0 mg/kg/injection, schedule: Q01DX009 (ip), vehicle: Klucel (hydroxypropylcellulose) (HPC)",100 % of control
same,T/C,"dose: 100.0 mg/kg/injection, schedule: Q04DX003 (ip), vehicle: Klucel (hydroxypropylcellulose) (HPC)",110 % of control
same,T/C,"dose: 133.0 mg/kg/injection, schedule: Q01DX009 (ip), vehicle: Klucel (hydroxypropylcellulose) (HPC)",115 % of control
same,T/C,"dose: 133.0 mg/kg/injection, schedule: Q04DX003 (ip), vehicle: Klucel (hydroxypropylcellulose) (HPC)",90 % of control and 100 % of control
same,T/C,"dose: 200.0 mg/kg/injection, schedule: Q04DX003 (ip), vehicle: Klucel (hydroxypropylcellulose) (HPC)",90 % of control and 100 % of control
same,T/C,"dose: 300.0 mg/kg/injection, schedule: Q04DX003 (ip), vehicle: Klucel (hydroxypropylcellulose) (HPC)",90 % of control
COc1ccccc1N1C(=O)CC(Sc2ccccc2N)C1=O (stereo not given),T/C,"dose: 100.0 mg/kg/injection, schedule: Q01DX009 (ip), vehicle: saline with Tween-80",91 % of control
same,T/C,"dose: 132.0 mg/kg/injection, schedule: Q01DX009 (ip), vehicle: saline with Tween-80",95 % of control
same,T/C,"dose: 200.0 mg/kg/injection, schedule: Q01DX009 (ip), vehicle: saline with Tween-80",105 % of control
same,T/C,"dose: 300.0 mg/kg/injection, schedule: Q01DX009 (ip), vehicle: saline with Tween-80",105 % of control
same,T/C,"dose: 400.0 mg/kg/injection, schedule: Q01DX009 (ip), vehicle: saline with Tween-80",91 % of control
O=C1C(N2CCCC2)=C(N2CC2)C(=O)C(N2CCCC2)=C1N1CC1,T/C,"dose: 0.25 mg/kg/injection, schedule: Q01DX009 (ip), vehicle: saline",172 % of control
C/C=C/C(=O)OCCC[N+](C)(C)C,T/C,"dose: 0.09 mg/kg/injection, schedule: Q01DX009 (ip), vehicle: saline",95 % of control
same,T/C,"dose: 0.19 mg/kg/injection, schedule: Q01DX009 (ip), vehicle: saline",92 % of control
same,T/C,"dose: 0.39 mg/kg/injection, schedule: Q01DX009 (ip), vehicle: saline",96 % of control and 109 % of control
same,T/C,"dose: 0.78 mg/kg/injection, schedule: Q01DX009 (ip), vehicle: saline",96 % of control and 101 % of control
same,T/C,"dose: 1.56 mg/kg/injection, schedule: Q01DX009 (ip), vehicle: saline",96 % of control and 111 % of control
same,T/C,"dose: 3.12 mg/kg/injection, schedule: Q01DX009 (ip), vehicle: saline",100 % of control and 105 % of control
same,T/C,"dose: 6.25 mg/kg/injection, schedule: Q01DX009 (ip), vehicle: saline",92 % of control
O=S(=O)(O)O.O=S(=O)([O-])[O-].O=[N+]([O-])O.[Co+3].[Co+3].[NH2-].[NH2-].[NH2-].[NH2-].[NH2-].[NH2-].[NH2-].[NH2-].[NH2-],T/C,"dose: 6.25 mg/kg/injection, schedule: Q01DX009 (ip), vehicle: water",97 % of control
same,T/C,"dose: 12.5 mg/kg/injection, schedule: Q01DX009 (ip), vehicle: water",124 % of control

# From PubChem BioAssay AID328 (DTP/NCI, 2004)
